The values that follow come from patent publication US10059689B2, “Substituted heteroaryl compounds and methods of use” (Sunshine Lake Pharma Co., Ltd., priority 2014, dated 2018).

A short description of data set [1]: Compound stability in human liver microsomes. Type of data set: in vitro ADME. On the procedure: (§1) Human or rat liver microsomes incubations were conducted in duplicate in polypropylene tubes. The typical incubation mixtures consisted of human or rat liver microsomes (0.5 mg protein/mL), compounds of interest (5 μM) and NADPH (1.0 mM) in a total volume of 200 μL potassium phosphate buffer (PBS, 100 mM, pH 7.4). Compounds were dissolved in DMSO and diluted with PBS such that the final concentration of DMSO was 0.05%. The enzymatic reactions were commenced with the addition of protein after a 3-min preincubation and incubated in a water bath open to the air at 37° C. Reactions were terminated at various time points (0, 5, 10, 15, 30, 60 min) by adding equal volume of ice-cold acetonitrile. The samples were stored at −80° C. until LC/MS/MS assays.
(§2) The concentrations of compounds in the incubation mixtures of human or rat liver microsomes were determined by a LC/MS/MS method. The ranges of the linearity in the concentration range were determined for each tested compounds.
(§3) A parallel incubation was performed using denatured microsomes as the negative control, and reactions were terminated at various time points (0, 15, 60 min) after incubation at 37° C.
(§4) Verapamil (1 μM) was selected as the positive control, and reactions were terminated at various time points (0, 5, 10, 15, 30, 60 min) after incubation at 37° C. Both positive and negative control samples were included in each assay to ensure the integrity of the microsomal incubation system.
(§5) In addition, the stability date of compound in human and rat liver microsomes was also obtained through the following method. Human or rat liver microsomes incubations were conducted in duplicate in polypropylene tubes. The typical incubation mixtures consisted of human or rat liver microsomes (0.5 mg protein/mL), compounds of interest (1.5 μM) and EDTA (1.0 mM) in a total volume of 30 μL potassium phosphate buffer (PBS, 100 mM, pH 7.4). Compounds were dissolved in DMSO and diluted with PBS such that the final concentration of DMSO was 0.2%. The enzymatic reactions were commenced with the addition of 15 μL NADPH (final concentration: 2 mM) after a 10-min preincubation and incubated in a water bath open to the air at 37° C. Reactions were terminated at various time points (0, 15, 30, 60 min) by adding 135 μL acetonitrile (contain IS). The samples were centrifuged at 4000 rpm for 10 min to remove protein, the supernatant was stored at −80° C. until LC/MS/MS assays. Ketanserin (1 μM) was selected as the positive control, and reactions were terminated at various time points (0, 15, 30, 60 min) after incubation at 37° C. Both positive and negative control samples were included in each assay to ensure the integrity of the microsomal incubation system.
(§6) The concentrations of compounds in human or rat liver microsome incubations were plotted as a percentage of the relevant zero time point control for each reaction. The in vivo CLint were extrapolated (ref.: Naritomi, Y.; Terashita, S.; Kimura, S.; Suzuki, A.; Kagayama, A.; and Sugiyama, Y.; Prediction of human hepatic clearance from in vivo animal experiments and in vitro metabolic studies with liver microsomes from animals and humans. Drug Metab. Dispos., 2001, 29: 1316-1324).
(Liver microsomes are vesicles of endoplasmic reticulum, rich in cytochrome P450 enzymes.)

Data set [2] is described as follows: Compound stability in rat liver microsomes. The format is in vitro ADME. On the procedure: as §1, §2, §3, §4, §5, §6
A short description of data set [3]: Pharmacokinetics after intravenous and oral administration in rats. The format is in vivo. How it is done:
The LC/MS/MS system used in the analysis consists of an Agilent 1200 Series vacuum degasser, binary pump, well-plate autosampler, thermostatted column compartment, the Agilent G6430 Triple Quadrupole Mass Spectrometer with an electrosprayionization (ESI) source. Quantitative analysis was carried out using MRM mode. The parameters for MRM transitions are in the Table A.
An Agilent XDB-C18, 2.1×30 mm, 3.5 μM column was used for the analysis. 5 μL of the samples were injected. Analysis condition: The mobile phase was 0.1% formic acid in water (A) and 0.1% formic acid in methanol (B). The flow rate was 0.4 mL/min. And the gradient of Mobile phase was in the Table B.
Alternatively, an Agilent 6330 series LC/MS/MS spectrometer equipped with G1312A binary pumps, a G1367A autosampler and a G1314C UV detector were used in the analysis. An ESI source was used on the LC/MS/MS spectrometer. The analysis was done in positive ion mode as appropriate and the MRM transition for each analyte was optimized using standard solution. A Capcell MP-C18 100×4.6 mm I.D., […] column (Phenomenex, Torrance, Calif., USA) was used during the analysis. The mobile phase was 5 mM ammonia acetate, 0.1% MeOH in water (A): 5 mM ammonia acetate, 0.1% MeOH in acetonitrile (B) (70:30, v/v). The flow rate was 0.6 mL/min. Column was maintained at ambient temperature. 20 μL of the samples were injected.
The compounds disclosed herein are assessed in pharmacokinetic studies in mice, rats, dogs or monkeys. The compounds are administered as a water solution, 2% HPMC+1% TWEEN®80 in water solution, 5% DMSO+5% solutol in saline, 4% MC suspension or capsule. For the intravenous administration, the animals are generally given at 1 or 2 mg/kg dose. For the oral (p.o.) dosing, mice and rats are generally given 5 or 10 mg/kg dose, and dogs and monkeys are generally given 10 mg/kg dose. The blood samples (0.3 mL) are drawn at 0.25, 0.5, 1.0, 2.0, 3.0, 4.0, 6.0, 8.0, 12 and 24 h time points or 0.083, 0.25, 0.5, 1.0, 2.0, 4.0, 6.0, 8.0 and 24 h time points and centrifuged at 3,000 or 4000 rpm for 2 to 10 min. The plasma solutions are collected, and stored at −20° C. or −70° C. until analyzed by LC/MS/MS as described above.

The target in a further data set is T1, JAK1 (h) (Homo sapiens, UniProt P23458).
T1 construct: purchased Millipore UK Ltd (contract assay service)
T1 sequence (P23458 whole entry): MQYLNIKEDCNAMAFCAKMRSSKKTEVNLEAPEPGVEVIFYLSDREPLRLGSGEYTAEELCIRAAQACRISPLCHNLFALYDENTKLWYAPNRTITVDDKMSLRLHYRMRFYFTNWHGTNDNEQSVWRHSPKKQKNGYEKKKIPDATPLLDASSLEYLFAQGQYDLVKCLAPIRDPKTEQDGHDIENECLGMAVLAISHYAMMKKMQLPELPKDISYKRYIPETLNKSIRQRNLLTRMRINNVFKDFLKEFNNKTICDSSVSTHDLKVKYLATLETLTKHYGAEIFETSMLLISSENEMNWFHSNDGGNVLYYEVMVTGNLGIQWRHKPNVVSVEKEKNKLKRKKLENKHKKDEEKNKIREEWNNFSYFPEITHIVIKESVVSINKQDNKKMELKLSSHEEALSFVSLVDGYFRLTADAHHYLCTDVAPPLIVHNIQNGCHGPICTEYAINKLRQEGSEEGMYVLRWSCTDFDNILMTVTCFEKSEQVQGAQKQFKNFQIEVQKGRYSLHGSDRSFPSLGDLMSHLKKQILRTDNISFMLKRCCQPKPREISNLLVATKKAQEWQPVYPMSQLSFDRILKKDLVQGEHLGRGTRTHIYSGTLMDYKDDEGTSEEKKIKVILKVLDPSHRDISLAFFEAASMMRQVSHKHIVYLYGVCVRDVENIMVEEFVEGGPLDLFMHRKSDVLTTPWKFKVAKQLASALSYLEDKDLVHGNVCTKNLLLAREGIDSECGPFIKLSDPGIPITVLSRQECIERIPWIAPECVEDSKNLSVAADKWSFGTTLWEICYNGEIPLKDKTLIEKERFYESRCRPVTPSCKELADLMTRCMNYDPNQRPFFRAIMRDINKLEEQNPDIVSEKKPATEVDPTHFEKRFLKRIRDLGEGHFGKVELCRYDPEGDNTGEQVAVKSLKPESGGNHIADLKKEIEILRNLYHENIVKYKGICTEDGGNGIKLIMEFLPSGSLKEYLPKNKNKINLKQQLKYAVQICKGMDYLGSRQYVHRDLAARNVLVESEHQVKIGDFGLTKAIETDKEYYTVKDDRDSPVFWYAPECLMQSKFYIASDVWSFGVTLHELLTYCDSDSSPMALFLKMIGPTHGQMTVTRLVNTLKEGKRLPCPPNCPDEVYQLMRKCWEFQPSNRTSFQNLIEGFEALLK
Put plainly: JAK1 (h) kinase assay. The format is biochemical. On the procedure:
(§7) The above assay procedure can be used to determine the IC50 for inhibition and/or the inhibition constant, Ki. The IC50 is defined as the concentration of compound required to reduce the enzyme activity by 50% under the condition of the assay. The IC50 value is estimated by preparing a 10 point curve using a ½ log dilution series (for example, a typical curve may be prepared using the following compound concentrations: 3 μM, 1 μM, 0.3 μM, 0.1 μM, 0.03 μM, 0.01 μM, 0.003 μM, 0.001 μM, 0.0003 μM and 0 μM).
JAK1 (h) is incubated with 20 mM Tris/HCl pH 7.5, 0.2 mM EDTA, 500 μM GEEPLYWSFPAKKK, 10 mM MgAcetate and [γ-^33P-ATP] (specific activity approx. 500 cpm/pmol, concentration as required). The reaction is initiated by the addition of the MgATP mix. After incubation for 40 minutes at room temperature, the reaction is stopped by the addition of 3% phosphoric acid solution. 10 μL of the reaction is then spotted onto a P30 filtermat and washed three times for 5 minutes in 75 mM phosphoric acid and once in methanol prior to drying and scintillation counting.
(§8) The kinase assays described herein were performed at Millipore UK Ltd, Dundee Technology Park, Dundee DD2 1SW, UK.

The next data set deals with T2, JAK2 (h) (Homo sapiens, UniProt O60674).
T2 construct: purchased Millipore UK Ltd (contract assay service)
T2 sequence (O60674 whole entry): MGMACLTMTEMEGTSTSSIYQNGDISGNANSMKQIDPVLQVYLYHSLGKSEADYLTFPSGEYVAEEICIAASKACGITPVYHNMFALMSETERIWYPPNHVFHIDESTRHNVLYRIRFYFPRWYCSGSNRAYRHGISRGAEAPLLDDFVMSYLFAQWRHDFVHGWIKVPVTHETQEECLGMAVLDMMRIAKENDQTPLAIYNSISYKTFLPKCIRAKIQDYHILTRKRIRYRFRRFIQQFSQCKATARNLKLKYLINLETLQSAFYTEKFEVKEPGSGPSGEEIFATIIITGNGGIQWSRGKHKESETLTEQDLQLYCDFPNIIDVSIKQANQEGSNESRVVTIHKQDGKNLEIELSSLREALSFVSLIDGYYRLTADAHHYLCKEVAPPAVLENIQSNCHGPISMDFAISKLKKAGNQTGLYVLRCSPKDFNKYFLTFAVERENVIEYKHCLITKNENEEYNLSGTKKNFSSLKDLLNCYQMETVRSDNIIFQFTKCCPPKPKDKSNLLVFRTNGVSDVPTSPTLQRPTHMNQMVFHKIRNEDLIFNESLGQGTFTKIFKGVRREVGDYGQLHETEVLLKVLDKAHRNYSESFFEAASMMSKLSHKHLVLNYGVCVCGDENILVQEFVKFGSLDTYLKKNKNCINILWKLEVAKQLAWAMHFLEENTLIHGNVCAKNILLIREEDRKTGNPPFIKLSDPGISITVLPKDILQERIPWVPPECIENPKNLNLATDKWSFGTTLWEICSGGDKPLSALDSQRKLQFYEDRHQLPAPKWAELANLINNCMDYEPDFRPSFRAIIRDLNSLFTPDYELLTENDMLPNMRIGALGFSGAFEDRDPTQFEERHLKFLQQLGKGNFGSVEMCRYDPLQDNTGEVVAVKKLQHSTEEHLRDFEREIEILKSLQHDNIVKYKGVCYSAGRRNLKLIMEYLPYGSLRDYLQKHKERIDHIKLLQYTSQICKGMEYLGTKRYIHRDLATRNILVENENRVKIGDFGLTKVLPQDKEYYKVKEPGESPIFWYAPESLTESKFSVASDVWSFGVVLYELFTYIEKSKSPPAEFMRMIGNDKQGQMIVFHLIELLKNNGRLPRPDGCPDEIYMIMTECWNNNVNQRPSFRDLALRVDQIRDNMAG
As to the kind of experiment: JAK2 (h) kinase assay. Type of data set: biochemical. On the procedure:
as §7
JAK2 (h) is incubated with 8 mM MOPS pH 7.0, 0.2 mM EDTA, 100 μM […], 10 mM MgAcetate and [γ-^33P-ATP] (specific activity approx. 500 cpm/pmol, concentration as required). The reaction is initiated by the addition of the MgATP mix. After incubation for 40 minutes at room temperature, the reaction is stopped by the addition of 3% phosphoric acid solution. 10 μL of the reaction is then spotted onto a P30 filtermat and washed three times for 5 minutes in 75 mM phosphoric acid and once in methanol prior to drying and scintillation counting.
as §8

[4] abbreviates: pH 7.4, in vivo CLint extrapolated.
[5] abbreviates: rat, plasma, iv dosing, 1 mg/kg.

The term CLint scaled denotes the rate of metabolic loss divided by the concentration. Broadly, the AUC(0-t) is exposure summed from dosing to a finite time, without extrapolation to infinity. Read a low AUC(0-t) as low exposure. By IC50 is commonly meant the midpoint of a concentration-inhibition curve. Read a low IC50 as greater potency in that assay.

As to `Cc1nn(C)cc1Nc1ncc(Cl)c(N(C)C2CCN(c3ccc(C#N)cn3)CC2)n1` [Ex. 14, 6-(4-((5-chloro-2-((1,3-dimethyl-1H-pyrazol-4-yl)amino)pyrimidin-4-yl) (methyl)amino)piperidin-1-yl)nicotinonitrile], the half-life in data set [1] (pH 7.4, 37° C., NADPH, read-out: Human T1/2) is 7.99 min; in data set [2] (pH 7.4, 37° C., NADPH, read-out: Rat T1/2), 1.71 min; in data set [3] (setting [5]) it was 29.4 min. Also, the CLint scaled in data set [1] (setting [4]) is 217 mL/min/kg; in data set [2] (setting [4]) it was 1450 mL/min/kg. Further, the “clearance (CL)” value in data set [3] (iv dosing, 1 mg/kg) was 61.2 mL/min/kg. In data set [3] (oral bioavailability), this compound returned an F of 107.1%. In data set [3] (setting [5]), this compound displayed an AUC(0-t) of 273 ng·h/mL. Moreover, the Vd in data set [3] (rat, plasma, iv dosing, 1 mg/kg, read-out: Vss) was 1.19 L/kg. Moreover, the IC50 on JAK1 (h) was found to be 1 nM; against JAK2 (h) it was 175 nM.
